According to patent US7349080B2, “Label-independent detection of unpurified analytes” (Corning Incorporated, priority 2004, dated 2008):

Assay: Label-independent detection (LID) of binding to immobilized biotin on a grating-coupled waveguide microplate
Source text: A label-independent detection (LID) system developed by Corning Inc. was used to evaluate interactions between unlabeled streptavidin and immobilized biotin. This LID system is comprised of a multi-well optical reader and a disposable microplate (e.g., a 96- or 384-well microplate). Each well of the microplate contains a grating-coupled waveguide for evanescent field sensing. The sensing surface has a surface chemistry layer allowing for attachment of molecules that contain primary amine groups (e.g., biotin-amine). As streptavidin or other analytes of interest bind to the sensing surface, the refractive index at the surface is changed. An optical mode propagates and senses the refractive index changes close to the sensing surface. Only light that is “resonant” is strongly reflected, and the exact wavelength of the resonance is a sensitive function of the refractive index at the surface of the sensor. In a typical operation, a baseline read of the microplate is first established. Addition of a binding partner results in a change in refractive index at the sensing surface, which is indicated as picometer (pm) shift from baseline. Each microplate is read on the optical reader before, during, and after the addition of the binding partner. Resonant wavelength shift (“Response (pm)”) is plotted as a function of time. Cell lysate was prepared by diluting a 2 mg/ml stock to 100 μg/ml final concentration. A Corning 96-well clear polystyrene non-treated flat bottom plate (Corning catalog # 3370) was used for source plate preparation. To facilitate efficient pickup of the sample solutions by a multi-channel robotic pipettor in the LID instrument, each well of the source plate contained extra solution. A solution of 1× phosphate buffered saline (PBS; 1 mM KH2PO4, 10 mM Na2HPO4, 137 mM NaCl, and 2.7 mM KCl) was used as a first addition step for baseline measure. […] Interactions between purified streptavidin and immobilized biotin were first evaluated (FIG. 2). […] PBS was added to establish a baseline read (before point A). […]

Row | effect of post wash on binding of streptavidin to biotin (PBS wash after point C, corrected response curve, FIG. 3) | bulk index shift (Response (pm)) due to binding to the immobilized biotin (purified streptavidin 200 nM in 1x PBS, between points A and B, FIG. 2) | Compound | binding to the target area (ethanolamine in borate buffer, between points B and C, corrected response curve, FIG. 3)
1 |  |  | NCCO [Ethanolamine, ethanolamine] | did not appear to bind to the target area
2 | did not disrupt the binding | increase in the bulk index | streptavidin | 
